What all share (assay type): cell-based
In test [1] the test system is H4K12me1 levels in PC-3 M prostate tumor cells. In words: Western blot of cellular H4K12me1 levels. The following applies: PC-3 M cells, 10 μM, 3 days. How it is done: 7 Cellular activity of prodrug compound 8. (A) Levels of H4K12me1 in PC-3 M prostate tumor cells cultured in the presence of DMSO (−), 10 μM compound 8 or compound 8-N for 3 days were analyzed by Western blot using the indicated antibodies. Histone H4 was used as control. (B, C) Proliferation of Caco-2 cells treated with DMSO (Ctrl), compound 8, or compound 8-N were measured by Xcelligence. Data represent means ± s.d (n = 3). (D) Proliferation of HepG2 cells upon treatment of DMSO (Ctrl) and compound 8.
Experiments were performed as previously described. Histones used for Western blot analysis were extracted from cells as following: Cells were harvested, washed with PBS, resuspended in Triton Extraction Buffer (TEB; PBS, Triton ×100, 2 mM PMSF, 0.02% NaN3), stored 10 min on ice, centrifuged, and supernatant was discarded. After washing cells, a second time with TEB, pellets were resuspended in 0.2 N HCl and histones were acid-extracted overnight at 4 °C. Upon centrifugation for 10 min at 2000 rpm, supernatant was collected and protein concentration was determined. Three days before harvesting, cells were transfected with siRNA as indicated. The following antibodies were used: anti-KMT9α (#27630, lot 20062017, Schüle Lab), antihistone H4 (#ab10158, lot GR322677–1, Abcam), anti-H4K12me1 (#27429, lot 27062017, Schüle Lab).
(In general: In western blotting, separated proteins are transferred to a membrane and probed.)

In a further test the test system is SW480 cells. In words: Cell proliferation assay (X-Celligence), SW480. As to conditions: Xcelligence, vs DMSO. The method, then:
Cell proliferation was determined using the X-Celligence RTCA system (Roche). For real-time recording of SW480, Caco-2 cell proliferation, 5000 cells/well were seeded in 16 well E-plates (Roche). Cells were seeded in the presence of DMSO or compound 8/8-N or transfected with the indicated siRNAs in the presence of Dharmafect (Life Technologies) 24 h before seeding in E-plates. Cell indices were automatically recorded every 15 min. Relative velocities represent the change of the cell index over time. The sequences of the siRNAs (Stealth RNAi siRNAs; Life Technologies) used in the experiments have been previously described.

The next test has as its target T1, KMT9a (Homo sapiens, UniProt Q9Y5N5).
T1 sequence (Q9Y5N5 1-214): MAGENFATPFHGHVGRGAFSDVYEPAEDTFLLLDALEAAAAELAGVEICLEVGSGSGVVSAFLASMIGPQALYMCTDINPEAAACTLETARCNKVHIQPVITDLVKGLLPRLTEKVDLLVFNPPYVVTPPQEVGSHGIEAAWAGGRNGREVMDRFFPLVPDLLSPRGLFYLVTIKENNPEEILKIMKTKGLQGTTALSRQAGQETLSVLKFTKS
T1 sequence (Q9UI30 1-125 partner): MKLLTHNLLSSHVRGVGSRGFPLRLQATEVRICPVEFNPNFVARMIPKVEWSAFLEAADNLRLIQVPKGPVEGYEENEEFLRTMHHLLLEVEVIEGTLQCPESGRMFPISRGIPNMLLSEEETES
The test can be described thus: CETSA in HepG2 cells, KMT9. Details: prodrug compound 8 can target endogenous KMT9; endogenous in cells; host or cells: HepG2. The following applies: vs DMSO. The method, then: (§1) For whole cell CETSA, the cells were incubated with 10/15 μM of compound 7b/8/8-N for 18 h. Then, cells were washed with cell culture medium, detached from the surface using trypsin, washed with PBS and the number of cells was determined. Cell concentration was adjusted to 3.6 × 10^7 cells/mL using in PBS with Complete (w/o EDTA, Roche) protease inhibitor. Then, cells were frozen in liquid nitrogen and thawed at 25 °C three times, before being divided in 16 aliquots. Each aliquot was heated to a defined temperature between 40 and 70 °C in a PCR cycler (16 well gradient, 55 °C ± 15). After 3 min incubation, aliquots were snap frozen in liquid nitrogen and thawed at 25 °C. Cell lysates were then centrifuged at 20,000 × g , 4 °C for 20 min. Supernatant were mixed with 5× loading buffer, heated to 70 °C for 5 min and analyzed by Western blotting essentially as previously described. For the CETSA performed with cell lysates, cells were directly harvested and lysed as described above. […]
(§2) Figure S5. […] Representative Western blots (D) and quantification (E) showing increased melting temperatures (ΔT m) of endogenous KMT9a upon treatment with compound 8 compared to DMSO. […] Representative Western blots (F) and quantification (G) showing no obvious shifting melting temperatures (ΔT m) of endogenous KMT5A upon treatment with compound 8 compared to DMSO. […]

Another test concerns the target T2, KMT5A (Homo sapiens, UniProt Q9NQR1).
T2 sequence (Q9NQR1 1-393): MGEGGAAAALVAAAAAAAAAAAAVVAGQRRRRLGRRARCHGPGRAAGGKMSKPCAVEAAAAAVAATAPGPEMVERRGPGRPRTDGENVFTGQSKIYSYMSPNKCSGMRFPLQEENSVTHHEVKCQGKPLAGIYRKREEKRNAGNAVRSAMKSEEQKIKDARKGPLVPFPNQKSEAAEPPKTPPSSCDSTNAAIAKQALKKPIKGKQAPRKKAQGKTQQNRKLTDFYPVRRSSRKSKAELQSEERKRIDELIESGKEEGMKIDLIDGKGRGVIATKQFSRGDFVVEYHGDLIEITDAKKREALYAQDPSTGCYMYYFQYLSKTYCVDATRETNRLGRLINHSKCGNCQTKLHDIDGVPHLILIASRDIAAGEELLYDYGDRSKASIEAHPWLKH
In words: CETSA in HepG2 cells, KMT5A. More on the design: KMT5A upon treatment with compound 8 compared to DMSO; endogenous in cells; host or cells: HepG2. The method, then: as §1, §2

Each structure is given as a SMILES string.

As to `CCOC(=O)[C@@H](N)CCN(CCCNCCc1ccc(Oc2ccc(Cl)cc2)c(F)c1)C[C@H]1C[C@@H](n2ccc3c(NC)ncnc32)[C@H](O)[C@@H]1O` [compound 8, Ethyl (S)-2-amino-4-((3-((4-(4-chlorophenoxy)-3-fluorophenethyl)amino)propyl) (((1R,2R,3S,4R)-2,3-dihydroxy-4-(4-(methylamino)-7H-pyrrolo[2,3-d]pyrimidin-7-yl)cyclopentyl)methyl)amino)butanoate], in test [1], the “Levels of H4K12me1” value is given as “reduced H4K12me1 levels”. For the same compound, the “Proliferation of SW480 cells” value in the test with SW480 cells is recorded as “also found in SW480 tumor cell lines”. Besides, the ΔTm (in general, the change in melting temperature against a reference sample) at 15 µM at KMT9a is 8 °C; at KMT5A, 0.1 °C.
